Drawing on ChEMBL document CHEMBL1201862, “PubChem BioAssay data set” (2004), this text covers AC50, EC50 and IC50 for six molecules.

The structures appear in SMILES notation. Active and inactive are the calls of the source.

The target in data set [1] is T1, Cytochrome P450 1A2 (Homo sapiens, UniProt P05177).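 Also: PubChem cytochrome P450 panel assay, CYP1A2 panel member.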
T1 sequence (P05177 whole entry): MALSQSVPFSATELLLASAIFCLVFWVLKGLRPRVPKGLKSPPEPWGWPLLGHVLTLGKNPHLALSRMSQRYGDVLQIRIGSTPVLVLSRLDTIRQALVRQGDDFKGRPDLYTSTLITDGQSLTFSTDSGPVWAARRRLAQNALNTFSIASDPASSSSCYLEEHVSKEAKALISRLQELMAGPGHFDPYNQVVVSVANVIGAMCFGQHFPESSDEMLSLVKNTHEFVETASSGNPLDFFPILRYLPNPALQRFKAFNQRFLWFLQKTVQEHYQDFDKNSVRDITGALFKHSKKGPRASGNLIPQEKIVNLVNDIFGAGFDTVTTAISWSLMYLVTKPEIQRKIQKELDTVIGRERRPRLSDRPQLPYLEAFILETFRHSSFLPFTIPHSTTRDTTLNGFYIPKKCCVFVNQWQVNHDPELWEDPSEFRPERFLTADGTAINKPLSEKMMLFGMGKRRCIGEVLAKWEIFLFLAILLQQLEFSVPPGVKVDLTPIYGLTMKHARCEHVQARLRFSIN

Data set [2] concerns the target Cytochrome P450 2C9 (Homo sapiens, UniProt P11712).
In data set [3] the test system is HEK293. In words: NOD1 signaling inhibitors, primary screen, cell-based, luminescence, uHTS (AID 1578). The following applies: Homo sapiens. It is filed as functional.
The subject of data set [4] is HEK293. In words: cells. In kind it is functional, cell-based. The following applies: Homo sapiens.
In data set [5] the test system is HEK293. In words: cells. It is filed as functional, cell-based. The following applies: Homo sapiens. This is another data set of the same source.
The target of data set [6] is Nucleotide-binding oligomerization domain-containing protein 2 (Homo sapiens, UniProt Q9HC29). The data set can be described thus: NOD2 signaling inhibitors, cell-based, luminescence, uHTS, HEK293 (AID 1566). It is filed as functional.
The subject of data set [7] is HEK293. In words: NOD2 signaling inhibitors in MDP-stimulated cells, cell-based, uHTS, luminescence (AID 2001). In kind it is functional. The following applies: Homo sapiens.
The subject of data set [8] is HEK293. In words: cells. It is filed as functional, cell-based. The following applies: Homo sapiens. The source holds these as a separate data set.
For data set [9], the target named is Tumor necrosis factor (Homo sapiens, UniProt P01375). In words: TNFa-triggered NF-kB activation inhibitors, SAR follow-up, cell-based, revised (AID 2337). It is filed as functional.
Data set [10] addresses Nucleotide-binding oligomerization domain-containing protein 1 (Homo sapiens, UniProt Q9Y239). The data set can be described thus: NOD1 signaling inhibitors, SAR follow-up, revised (AID 2333). In kind it is functional.
The nature of data set [11]: cytotoxicity in HEK-293T cells, dose response, cytotoxicity control for TCR NF-kB inhibitor project, luminescence, T-cell screen hits (AID 489026).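 Also: cells exposed to compound about 14 hours before the viability readout.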 In kind it is functional, cell-based.
The subject of data set [12] is HEK293. The data set can be described thus: cells. The following applies: Homo sapiens.
Data set [13] can be described thus: inhibitors of firefly luciferase expression or activity, dose response, H4 neuroglioma cells, luminescence (AID 1990). It is filed as functional, cell-based.
Data set [14] is described as follows: luciferase reporter signal reduction – luminescence, H4-C neuroglioblastoma cells, dose response (AID 2458).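 Also: H4 neuroglioblastoma cells stably carrying a luciferase reporter gene fusion.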 It is filed as functional, cell-based. A general note: Reporter assays use an easily measured gene product as a stand-in for the process of interest.
Data set [15] is described as follows: cells. It is filed as functional, cell-based.
A short description of data set [16]: Luminescence Cell-Based Dose Response HTS to Identify Inhibitors of 5'UTR Stem-Loop Driven Prion Protein mRNA Translation in H4 Neuroglioblastoma Cells. [Related pubchem assays: 1827 (Project Summary), 1813 (Primary HTS)]. In kind it is functional.
Data set [17] is described as follows: inhibitors of SNCA 5'UTR-driven reporter translation, confirmation, H4 neuroglioma cells, luminescence (AID 1988). It is filed as functional, cell-based.
Data set [18] can be described thus: inhibitors of SNCA 5'UTR-driven translation, confirmation, luminescence, H4 neuroglioblastoma cells, dose confirmation (AID 2454).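 Also: H4 neuroglioblastoma cells carrying an alpha-synuclein 5'UTR luciferase reporter; potency for inhibition of the luciferase signal.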 It is filed as functional, cell-based.
Data set [19] has as its system Jurkat. The data set can be described thus: antigen receptor-induced NF-kB inhibitors, dose response, Jurkat, luciferase reporter, luminescence, B- and T-cell (AID 489004).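 Also: NF-kB luciferase reporter Jurkat cells stimulated with PMA plus ionomycin.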 It is filed as functional, cell-based. The following applies: Homo sapiens.
Data set [20] in a line: cytotoxicity in HEK-293T NF-kB-Luc cells, dose response, cytotoxicity control for B/T-cell NF-kB inhibitor project, cell-based, uHTS hits (AID 489019).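 Also: IC50 reflects cytotoxicity as loss of cell viability.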 In kind it is functional.
In data set [21] the target is T2, Dual specificity protein phosphatase 3 (Homo sapiens, UniProt P51452). In words: SAR VHR1 Fluorescent Assay for In Vitro dose response studies. [Related pubchem assays (depositor defined):AID1654, AID1661, AID1878, AID1992, AID2004, AID2070, AID2085]. It is filed as functional.
Data set [22] has as its target T2, Dual specificity protein phosphatase 3. The data set can be described thus: MOA VHR1 Fluorescent secondary assay for identification of redox-state modulating compounds. [Related pubchem assays (depositor defined):AID1654, AID1661, AID1878, AID1957].
The target in data set [23] is Tyrosine-protein phosphatase non-receptor type 7 (Homo sapiens, UniProt P35236). In words: redox-dependent HePTP inhibition, mechanism study, biochemical, fluorescence (AID 2068). In kind it is functional.
For data set [24], the target named is Dual specificity protein phosphatase 6 (Rattus norvegicus, UniProt Q64346). It is filed as functional.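 Also: confirmatory in vitro dose-response testing of MKP-3 inhibition; recombinant His-tagged MKP-3 made in E. coli BL21 with OMFP substrate.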
Data set [25] in a line: Luminescence Cell-Based/Microorganism Confirmation at Dose of Inhibitors of Trypanosoma cruzi Infection. [Related pubchem assays: 1885, 1968 ]. It is filed as functional.
Data set [26] in a line: Luminescence Cell-Based Secondary HTS screen to identify cytotoxic compounds of NIH3T3 cells. [Related pubchem assays: 1885, 1968 ]. In kind it is functional.
A short description of data set [27]: inhibitors of Trypanosoma cruzi host-cell infection, confirmation, beta-gal luminescence, NIH3T3 host cells (AID 2630). In kind it is functional, cell-based. The following applies: Mus musculus.
In data set [28] the target is T3, Mannose-6-phosphate isomerase (Homo sapiens, UniProt P34949).
T3 sequence (P34949 whole entry): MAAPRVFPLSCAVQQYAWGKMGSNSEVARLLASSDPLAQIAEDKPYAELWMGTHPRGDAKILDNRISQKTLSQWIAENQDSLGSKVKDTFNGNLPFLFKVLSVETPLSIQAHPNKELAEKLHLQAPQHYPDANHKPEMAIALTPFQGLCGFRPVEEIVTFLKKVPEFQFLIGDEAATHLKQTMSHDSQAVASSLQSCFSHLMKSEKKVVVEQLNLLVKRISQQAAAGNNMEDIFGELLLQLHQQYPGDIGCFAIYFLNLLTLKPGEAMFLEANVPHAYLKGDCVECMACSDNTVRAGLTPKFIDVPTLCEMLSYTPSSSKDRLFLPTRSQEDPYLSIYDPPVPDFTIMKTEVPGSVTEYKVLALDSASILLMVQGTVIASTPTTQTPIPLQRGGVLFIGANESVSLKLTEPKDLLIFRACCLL
The data set can be described thus: PMI enzyme inhibitors, confirmation, biochemical, fluorescence intensity (AID 1535).

In data set [29] the target is Phosphomannomutase 2 (Homo sapiens, UniProt O15305). The data set can be described thus: Counter screen SAR assay for PMM2 inhibitors via a fluorescence intensity assay. [Related pubchem assays (depositor defined):AID1545, AID1574]. (Counterscreens check selectivity or assay interference.)
In data set [30] the target is Phosphoethanolamine/phosphocholine phosphatase (Homo sapiens, UniProt Q8TCT1). The data set can be described thus: SAR assay for compounds that inhibit PHOSPHO1. [Related pubchem assays (depositor defined):AID1545, AID1565, AID1574].
Phosphoethanolamine/phosphocholine phosphatase, sequence (Q8TCT1 whole entry): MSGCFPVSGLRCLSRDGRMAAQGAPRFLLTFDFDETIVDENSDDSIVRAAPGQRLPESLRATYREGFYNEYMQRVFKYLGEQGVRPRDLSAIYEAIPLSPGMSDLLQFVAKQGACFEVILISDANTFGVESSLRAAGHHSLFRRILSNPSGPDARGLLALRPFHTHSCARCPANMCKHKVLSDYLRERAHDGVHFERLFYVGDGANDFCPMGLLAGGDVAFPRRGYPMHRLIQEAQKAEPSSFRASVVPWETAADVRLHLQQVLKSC

T2 sequence (P51452 whole entry): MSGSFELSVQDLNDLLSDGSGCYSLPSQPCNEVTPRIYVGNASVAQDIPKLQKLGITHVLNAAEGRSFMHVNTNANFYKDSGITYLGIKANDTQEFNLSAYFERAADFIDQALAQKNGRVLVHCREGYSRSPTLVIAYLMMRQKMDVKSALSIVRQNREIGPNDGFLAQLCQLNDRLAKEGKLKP
Nucleotide-binding oligomerization domain-containing protein 1, sequence (Q9Y239 whole entry, the tested form may be a part): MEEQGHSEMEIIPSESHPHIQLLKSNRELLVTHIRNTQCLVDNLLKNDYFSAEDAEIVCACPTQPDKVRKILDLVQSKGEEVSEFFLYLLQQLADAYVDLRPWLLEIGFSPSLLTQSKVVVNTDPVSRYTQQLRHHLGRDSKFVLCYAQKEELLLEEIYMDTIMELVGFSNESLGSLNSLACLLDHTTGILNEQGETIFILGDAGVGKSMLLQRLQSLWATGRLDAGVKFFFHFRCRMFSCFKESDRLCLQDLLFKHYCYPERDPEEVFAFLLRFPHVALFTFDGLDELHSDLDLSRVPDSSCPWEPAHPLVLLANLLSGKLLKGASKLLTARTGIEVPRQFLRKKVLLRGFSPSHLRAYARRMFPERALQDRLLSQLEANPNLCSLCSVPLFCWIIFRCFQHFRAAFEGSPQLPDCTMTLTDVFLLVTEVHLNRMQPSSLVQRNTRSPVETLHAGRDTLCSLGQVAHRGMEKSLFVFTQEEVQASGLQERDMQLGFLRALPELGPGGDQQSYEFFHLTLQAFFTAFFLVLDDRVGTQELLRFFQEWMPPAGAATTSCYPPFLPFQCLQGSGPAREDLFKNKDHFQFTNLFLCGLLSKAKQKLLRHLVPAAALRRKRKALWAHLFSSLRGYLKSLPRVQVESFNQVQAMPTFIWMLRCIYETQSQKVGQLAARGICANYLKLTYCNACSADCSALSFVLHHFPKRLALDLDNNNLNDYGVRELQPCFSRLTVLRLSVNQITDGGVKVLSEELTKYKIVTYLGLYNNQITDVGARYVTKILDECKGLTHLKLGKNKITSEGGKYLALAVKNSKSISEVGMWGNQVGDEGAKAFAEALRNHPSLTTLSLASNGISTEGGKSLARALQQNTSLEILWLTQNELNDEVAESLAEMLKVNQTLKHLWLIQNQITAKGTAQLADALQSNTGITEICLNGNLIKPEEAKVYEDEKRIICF
Phosphomannomutase 2, sequence (O15305 whole entry): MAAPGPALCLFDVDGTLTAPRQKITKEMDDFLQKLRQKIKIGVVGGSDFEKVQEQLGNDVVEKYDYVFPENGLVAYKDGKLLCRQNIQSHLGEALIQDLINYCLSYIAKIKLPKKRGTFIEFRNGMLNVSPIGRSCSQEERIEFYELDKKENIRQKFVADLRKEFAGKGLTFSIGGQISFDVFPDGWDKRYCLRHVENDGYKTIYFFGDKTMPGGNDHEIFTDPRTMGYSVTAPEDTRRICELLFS
Dual specificity protein phosphatase 6, sequence (Q64346 whole entry): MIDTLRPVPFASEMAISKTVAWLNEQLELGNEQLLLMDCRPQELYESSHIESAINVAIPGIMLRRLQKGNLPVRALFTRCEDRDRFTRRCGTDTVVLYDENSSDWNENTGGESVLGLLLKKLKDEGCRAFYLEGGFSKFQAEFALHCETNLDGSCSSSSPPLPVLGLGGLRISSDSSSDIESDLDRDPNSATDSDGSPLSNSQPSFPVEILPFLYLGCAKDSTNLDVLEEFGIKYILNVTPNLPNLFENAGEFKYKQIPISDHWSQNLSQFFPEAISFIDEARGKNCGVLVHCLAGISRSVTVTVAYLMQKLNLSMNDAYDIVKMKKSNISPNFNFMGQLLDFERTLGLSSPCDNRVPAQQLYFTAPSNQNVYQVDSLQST
Cytochrome P450 2C9, sequence (P11712 whole entry): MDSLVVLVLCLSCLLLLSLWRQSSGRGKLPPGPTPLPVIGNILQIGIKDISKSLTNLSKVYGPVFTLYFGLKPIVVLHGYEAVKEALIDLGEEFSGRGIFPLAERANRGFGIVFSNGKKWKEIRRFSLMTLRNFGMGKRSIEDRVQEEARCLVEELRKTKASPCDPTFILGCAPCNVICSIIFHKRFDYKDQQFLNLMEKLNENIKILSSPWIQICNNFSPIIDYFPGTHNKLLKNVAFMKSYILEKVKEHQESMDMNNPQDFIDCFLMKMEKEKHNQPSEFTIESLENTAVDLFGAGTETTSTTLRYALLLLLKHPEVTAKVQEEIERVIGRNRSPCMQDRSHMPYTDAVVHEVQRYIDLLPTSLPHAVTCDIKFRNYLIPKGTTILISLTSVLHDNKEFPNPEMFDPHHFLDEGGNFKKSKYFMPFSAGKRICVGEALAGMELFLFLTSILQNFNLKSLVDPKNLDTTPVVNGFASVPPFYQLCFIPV
Nucleotide-binding oligomerization domain-containing protein 2, sequence (Q9HC29 whole entry, the tested form may be a part): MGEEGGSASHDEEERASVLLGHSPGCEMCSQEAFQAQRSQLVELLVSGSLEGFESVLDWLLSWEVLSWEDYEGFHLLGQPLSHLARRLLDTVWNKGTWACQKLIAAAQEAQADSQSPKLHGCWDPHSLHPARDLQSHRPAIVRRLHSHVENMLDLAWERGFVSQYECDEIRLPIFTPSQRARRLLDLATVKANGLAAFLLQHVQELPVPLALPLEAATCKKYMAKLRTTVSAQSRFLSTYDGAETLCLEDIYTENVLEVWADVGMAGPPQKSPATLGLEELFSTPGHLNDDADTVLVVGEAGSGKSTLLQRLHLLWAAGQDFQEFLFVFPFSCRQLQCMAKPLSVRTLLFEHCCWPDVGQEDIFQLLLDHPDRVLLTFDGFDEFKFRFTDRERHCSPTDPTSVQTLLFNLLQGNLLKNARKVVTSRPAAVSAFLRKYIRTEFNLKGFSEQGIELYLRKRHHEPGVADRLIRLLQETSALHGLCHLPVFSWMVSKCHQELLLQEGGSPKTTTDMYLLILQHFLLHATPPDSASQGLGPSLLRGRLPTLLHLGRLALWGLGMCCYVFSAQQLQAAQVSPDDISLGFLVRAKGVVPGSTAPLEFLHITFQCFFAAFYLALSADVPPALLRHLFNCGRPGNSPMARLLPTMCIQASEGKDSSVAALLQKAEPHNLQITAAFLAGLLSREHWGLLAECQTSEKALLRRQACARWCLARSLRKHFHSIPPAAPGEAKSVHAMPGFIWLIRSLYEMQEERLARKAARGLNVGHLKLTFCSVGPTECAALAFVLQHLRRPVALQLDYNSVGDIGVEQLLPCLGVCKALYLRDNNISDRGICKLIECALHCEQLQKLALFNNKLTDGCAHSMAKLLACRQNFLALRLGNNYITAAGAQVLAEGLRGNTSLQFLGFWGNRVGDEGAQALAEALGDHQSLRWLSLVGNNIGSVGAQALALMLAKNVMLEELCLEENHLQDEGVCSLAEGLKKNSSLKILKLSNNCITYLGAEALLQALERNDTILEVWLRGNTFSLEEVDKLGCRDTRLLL
Tumor necrosis factor, sequence (P01375 whole entry, the tested form may be a part): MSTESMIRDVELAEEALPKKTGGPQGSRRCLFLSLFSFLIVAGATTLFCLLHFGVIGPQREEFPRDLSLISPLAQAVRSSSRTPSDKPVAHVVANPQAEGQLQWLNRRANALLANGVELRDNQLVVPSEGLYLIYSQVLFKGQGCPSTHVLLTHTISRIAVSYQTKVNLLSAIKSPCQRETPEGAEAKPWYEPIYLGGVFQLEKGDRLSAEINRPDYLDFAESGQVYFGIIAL
Tyrosine-protein phosphatase non-receptor type 7, sequence (P35236 whole entry): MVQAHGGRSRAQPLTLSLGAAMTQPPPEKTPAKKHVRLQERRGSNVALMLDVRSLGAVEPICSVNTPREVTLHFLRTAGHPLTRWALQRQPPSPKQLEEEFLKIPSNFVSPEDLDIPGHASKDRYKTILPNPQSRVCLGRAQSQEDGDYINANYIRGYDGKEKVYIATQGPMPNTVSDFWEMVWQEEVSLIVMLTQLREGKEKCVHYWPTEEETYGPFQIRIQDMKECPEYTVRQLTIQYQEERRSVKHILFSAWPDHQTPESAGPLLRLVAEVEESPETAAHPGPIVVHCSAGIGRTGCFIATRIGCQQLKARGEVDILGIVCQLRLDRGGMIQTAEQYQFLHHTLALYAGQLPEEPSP

As to `CC(=O)N1CCC2(CC1)CN(c1ccncc1)C2`, the AC50 entry in data set [1] and in [2] was “inconclusive” throughout.

By EC50 is commonly meant the concentration needed to bring the measured effect to its halfway point. The term IC50 denotes the concentration that inhibits the measured activity by half. With `Cc1cc(-c2ccc(C)c(S(=O)(=O)N3CCN(c4ccc([N+](=O)[O-])cc4)CC3)c2)on1`, the EC50 in [3] is 2.09 µM (active); in data set [6], > 20 µM (inactive). The half-maximal inhibitory concentration (IC50) in data set [4] was 2.36 µM (active); in data set [5], > 20 µM (inactive); in data set [7], 7.6 µM (inactive); in [8], > 20 µM (inactive); in data set [9] it was 2.11 µM (active); in data set [10], 2.42 µM (active). In addition, the values for the IC50 in data set [11] and in data set [12] were > 80 µM (inactive) and > 20 µM (inactive), respectively.

For `Cc1nn(C(C)(C)C)c(C)c1/C=N/OC(=O)Nc1ccc(Cl)cc1`, the EC50 in [13] is < 0.1 µM (active); in data set [14], 0.059 µM (active); in data set [15] it was 0.075 µM (active); in data set [16] it was < 0.1 µM (active); in [17], < 0.1 µM (active); in [18], 0.037 µM (active). Besides, the IC50 in [19] was < 0.16 µM (active); in data set [20] it was > 80 µM (inactive).

For the molecule `CCOC(=O)C1=C(c2ccccc2)N=c2sc(=Cc3cc(OC)c(OC)c(OC)c3)c(=O)n2C1c1cccs1` (stereo not given), the IC50 in [21], in data set [22], in [23] and in data set [24] was > 50 µM (inactive) each time.

As for `CC1CC(C)CN(CCOCCSc2ccccc2)C1` (stereo not given), the EC50 was 0.098 µM (active) in data set [25], > 195 µM (not active) in data set [26] and 0.098 µM (active) in [27].

On to `O=c1c2ccc(F)cc2sn1-c1ccc(Cl)cc1Cl`, for which the IC50 in data set [28] is 14.4 µM (active); in data set [29], > 100 µM (inactive); in data set [30] it was 0.534 µM (active).
